Consider 15 compounds from ChEMBL document CHEMBL1914306, “The design, synthesis and biological evaluation of novel URB602 analogues as potential monoacylglycerol lipase inhibitors” (Bioorg Med Chem Lett, 2011).

Structures are written as SMILES.

Test [1] concerns the target T1, Monoglyceride lipase (Homo sapiens) (UniProt Q99685).
T1 sequence (whole entry): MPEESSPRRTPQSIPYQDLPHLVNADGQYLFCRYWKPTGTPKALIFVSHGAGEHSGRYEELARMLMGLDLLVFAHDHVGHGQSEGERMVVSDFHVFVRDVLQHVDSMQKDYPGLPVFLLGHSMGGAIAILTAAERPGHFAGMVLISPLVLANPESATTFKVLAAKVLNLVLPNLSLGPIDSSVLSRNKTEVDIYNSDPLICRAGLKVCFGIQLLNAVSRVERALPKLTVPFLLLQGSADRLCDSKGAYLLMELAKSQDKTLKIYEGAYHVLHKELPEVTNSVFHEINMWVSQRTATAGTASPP
In words: Inhibition of human recombinant MAGL assessed as remaining activity at 10 uM after 10 mins by spectrophotometry relative to control.

Test [2] deals with T1, Monoglyceride lipase (Homo sapiens). In words: Inhibition of human recombinant MAGL assessed as remaining activity at 1 uM after 10 mins by spectrophotometry relative to control.
The target is the same in test [3]. In words: Inhibition of human recombinant MAGL assessed as remaining activity at 100 uM after 10 mins by spectrophotometry relative to control.
The target is the same in test [4]. In words: Inhibition of MAGL assessed as remaining activity using 4-nitrophenylacetate as substrate at 10 uM relative to control.

With `S=C(Nc1cccc(-c2ccccc2)c1)NC1CCCCC1`, the Activity in test [1] turned out to be 76%; in test [2], 93%.

In the case of `O=C(Nc1cccc(-c2ccccc2)c1)O[C@H]1C[C@H]2CC[C@@H]1C2`, the Activity in test [1] is 79%; in test [2], 95%.

Turning to `O=C(Nc1cccc(-c2ccc(O)cc2)c1)OC1CCCCC1`, the Activity in test [3] amounted to 26%; in test [1], 46%; in test [2] it was 83%.

Take `O=C(Nc1cccc(-c2ccc(Cl)cc2)c1)OC1CCCCC1`: the Activity in test [3] was 81%; in test [1], 81%; in test [2], 85%.

For `O=C(Nc1cccc(-c2ccccc2)c1)OC1CCCCCCC1`, the Activity in test [1] turned out to be 92%; in test [2], 101%.

For `O=C(Nc1cccc(-c2ccccc2)c1)OC1CCCC1`, the Activity in test [1] amounted to 71%; in test [2], 93%.

Take `S=C(Nc1cccc(-c2ccccc2)c1)OC1CCCCC1`: the results for the Activity in test [1] and in test [2] were 83% and 73%, respectively.

As for `S=C(Nc1cccc(-c2ccccc2)c1)OC1CCCCCC1`, the figures for the Activity in test [1] and in test [2] were 83% and 79%, respectively.

For `O=C(Nc1cccc(-c2ccccc2)c1)NC1CCCC1`, the Activity in test [1] is 73%; in test [2], 80%.

As for `O=C(Nc1cccc(-c2ccccc2)c1)OC1CCCCC1`, the Activity was determined as 73% in test [3], 71% in test [1], 84% in test [4] and 93% in test [2].

As to `CC(C)[C@@H]1CC[C@@H](C)C[C@H]1OC(=O)Nc1cccc(-c2ccccc2)c1`, the Activity in test [1] is 101%; in test [2], 106%.

As for `O=C(Nc1cccc(-c2ccccc2)c1)OC1CCC1`, the Activity was 85% in test [3], 86% in test [1] and 97% in test [2].

As to `O=C(Nc1cccc(-c2ccccc2)c1)NC1CCCCC1`, the figures for the Activity in test [3], in test [1] and in test [2] were 78%, 79% and 98%, respectively.

Turning to `O=C(Nc1cccc(-c2ccccc2)c1)OC1CCCCCC1`, the Activity in test [1] was found to be 71%; in test [2], 94%.

Consider `O=C(Nc1cccc(-c2ccccc2)c1)NC1CCCCCC1`, for which the Activity was found to be 55% in test [3], 80% in test [1] and 96% in test [2].
